Laboratory results from patent US20070134261A1, “Effectors of innate immunity” (priority 2001, published 2007).
Where “and” joins values, the source holds several entries; their conditions need not be identical. Equal entries are not always repeated.

Tested on: human A549 epithelial cells
Test: Resgen Human cDNA arrays (PRHU03-S3) of A549 cells treated with peptide (Tables 21-26)
Conditions: 50 μg/ml, 4 h

In the case of CC[C@H](C)[C@H](N)C(=O)N[C@@H](CC(C)C)C(=O)N1CCC[C@H]1C(=O)N[C@@H](Cc1c[nH]c2ccccc12)C(=O)N[C@@H](CCCCN)C(=O)N[C@@H](Cc1c[nH]c2ccccc12)C(=O)N1CCC[C@H]1C(=O)N[C@@H](Cc1c[nH]c2ccccc12)C(=O)N[C@@H](Cc1c[nH]c2ccccc12)C(=O)N1CCC[C@H]1C(=O)N[C@@H](Cc1c[nH]c2ccccc12)C(=O)N[C@@H](CCCNC(=N)N)C(=O)N[C@@H](CCCNC(=N)N)C(N)=O [SEQ ID NO: 2], the “Ratio Peptide:Unstimulated, small inducible cytokine subfamily A (Cys—Cys), member 20” value (AI285199) is reported as 0.19, the “Ratio Peptide:Unstimulated, TLR 1” value (AI339155) is reported as 0.35 and the “Ratio Peptide:Unstimulated, disintegrin-like and metalloprotease with thrombospondin type 1 motif, 5” value (AI375048) is reported as 0.39. The “Ratio Peptide:Unstimulated, killer cell lectin-like receptor subfamily G, member 1” value (AI433079) was 2.3, the “Ratio Peptide:Unstimulated, apoptosis antagonizing transcription factor” value (AI439571) was 0.28 and the “Ratio Peptide:Unstimulated, T-cell receptor interacting molecule” value (AI453185) was 0.41. For the same compound, the “Ratio Peptide:Unstimulated, TGFB inducible early growth response 2” value (AI473938, listed as ID 2) was 2.4 and 2.38, the “Ratio Peptide:Unstimulated, MAP kinase kinase kinase 1” value (AI538525) was 0.61 and the “Ratio Peptide:Unstimulated, protocadherin 12” value (AI652584) was 14.8. For the same compound, the “Ratio Peptide:Unstimulated, protein tyrosine phosphatase, non-receptor type 18” value (AI668897) was 3.2, the “Ratio Peptide:Unstimulated, Fc fragment of IgE, high affinity I, receptor for; alpha polypeptide” value (AI676097) was 0.43 and the “Ratio Peptide:Unstimulated, G protein-coupled receptor 4” value (AI719098) was 3.7. For the same compound, the “Ratio Peptide:Unstimulated, peroxisome proliferative activated receptor, alpha” value (AI739498) was 0.38, the “Ratio Peptide:Unstimulated, cadherin 12, type 2 (N-cadherin 2)” value (AI740827) was 13 and the “Ratio Peptide:Unstimulated, complement component C1q receptor” value (AI761788) was 0.46. For the same compound, the “Ratio Peptide:Unstimulated, small inducible cytokine subfamily B (Cys-X-Cys), member 6 (granulocyte chemotactic protein 2)” value (AI889554) was 0.11, the “Ratio Peptide:Unstimulated, small inducible cytokine subfamily A (Cys—Cys), member 21” value (AI922341) was 3.9 and the “Ratio Peptide:Unstimulated, protein tyrosine phosphatase, receptor type, H” value (AI924306) was 0.11. The “Ratio Peptide:Unstimulated, tyrosine kinase, non-receptor, 1” value (AI936324) was 7.8, the “Ratio Peptide:Unstimulated, MAP kinase 12” value (AI936909) was 2.1 and the “Ratio Peptide:Unstimulated, G protein-coupled receptor 17” value (AI953187) was 0.32. For the same compound, the “Ratio Peptide:Unstimulated, apoptosis inhibitor 5” value (AI972925) was 2.8, the “Ratio Peptide:Unstimulated, IL-17 R” value (AW029299) was 2.1 and the “Ratio Peptide:Unstimulated, MAP kinase kinase kinase 6” value (AW084649) was 0.37. For the same compound, the “Ratio Peptide:Unstimulated” value (C-type lectin-like receptor-2 (H70491)) was 2.09, the “Ratio Peptide:Unstimulated” value (CCR6 (N57964)) was 4.51 and the “Ratio Peptide:Unstimulated” value (CD31 (PECAM) (R22412)) was 2.71. For the same compound, the “Ratio Peptide:Unstimulated, selectin L (lymphocyte adhesion molecule 1)” value (H00662) was 0.03, the “Ratio Peptide:Unstimulated, MAP kinase kinase kinase 10” value (H01340) was 1.23 and the “Ratio Peptide:Unstimulated, protein tyrosine phosphatase, non-receptor type 21” value (H03504) was 0.94. The “Ratio Peptide:Unstimulated, MAP kinase kinase 6” value (H07920, listed as ID 2) was 18 and 17.83, the “Ratio Peptide:Unstimulated, disintegrin and metalloproteinase domain 23” value (H11006) was 1.9 and the “Ratio Peptide:Unstimulated, vascular cell adhesion molecule 1” value (H16591) was 0.20. For the same compound, the “Ratio Peptide:Unstimulated, leukocyte immunoglobulin-like receptor, subfamily B” value (H54023) was 0.35, the “Ratio Peptide:Unstimulated, disintegrin and metalloproteinase domain 9” value (H59231) was 1.1 and the “Ratio Peptide:Unstimulated, TGF beta receptor III” value (H62473) was 0.91. For the same compound, the “Ratio Peptide:Unstimulated, regulator of G-protein signaling 13” value (H70047) was 0.54, the “Ratio Peptide:Unstimulated, C-type lectin-like receptor-2” value (H70491) was 2.1 and the “Ratio Peptide:Unstimulated, vasoactive intestinal peptide receptor 1” value (H73241) was 0.43. For the same compound, the “Ratio Peptide:Unstimulated, protein tyrosine phosphatase, receptor type, C” value (H74265) was 0.44, the “Ratio Peptide:Unstimulated, protein tyrosine phosphatase, receptor type, A” value (H82419) was 4.0 and the “Ratio Peptide:Unstimulated, G protein-coupled receptor 75” value (H84878) was 5.2. The “Ratio Peptide:Unstimulated, cadherin 1, type 1, E-cadherin epithelial” value (H97778) was 8.1, the “Ratio Peptide:Unstimulated, TNF R superfamily, member 5 (CD40LR)” value (H98636, listed as ID 2) was 3.0 and 2.98 and the “Ratio Peptide:Unstimulated” value (IL-11 Rα (AA454657)) was 2.39. For the same compound, the “Ratio Peptide:Unstimulated” value (IL-17 R (AW029299)) was 2.05, the “Ratio Peptide:Unstimulated” value (MAP kinase 9 (AA157286)) was 0.57 and the “Ratio Peptide:Unstimulated, TLR 7” value (N30597) was 0.13. The “Ratio Peptide:Unstimulated, CD36” value (N39161) was 8.2, the “Ratio Peptide:Unstimulated, TLR 5” value (N41021) was 0.12 and the “Ratio Peptide:Unstimulated, protein tyrosine phosphatase, receptor type, f polypeptide (PTPRF), interacting protein (liprin), α1” value (N49751) was 0.43. The “Ratio Peptide:Unstimulated, IL-2 receptor, gamma (severe combined immunodeficiency)” value (N54821) was 0.30, the “Ratio Peptide:Unstimulated, adenosine A2a R” value (N57553) was 3.1 and the “Ratio Peptide:Unstimulated, CCR6” value (N57964) was 4.5. For the same compound, the “Ratio Peptide:Unstimulated, G protein-coupled receptor 55” value (N58443) was 19, the “Ratio Peptide:Unstimulated, G protein-coupled receptor 85” value (N62306) was 6.8 and the “Ratio Peptide:Unstimulated, leukocyte immunoglobulin-like receptor, subfamily A” value (N63398) was 0.44. The “Ratio Peptide:Unstimulated, receptor tyrosine kinase-like orphan receptor 2” value (N94921) was 7.3, the “Ratio Peptide:Unstimulated, CD31” value (R22412) was 2.7 and the “Ratio Peptide:Unstimulated, IK cytokine, down-regulator of HLA II” value (R39227, listed as ID 2) was 3.1 and 3.11. For the same compound, the “Ratio Peptide:Unstimulated, cell adhesion molecule” value (R40400) was 4.0, the “Ratio Peptide:Unstimulated, cadherin 13, H-cadherin (heart)” value (R41787) was 0.37 and the “Ratio Peptide:Unstimulated, diphtheria toxin receptor (heparin-binding epidermal growth factor-like growth factor)” value (R45640) was 0.49. The “Ratio Peptide:Unstimulated, protein tyrosine phosphatase, receptor type, T” value (R52794) was 1.2, the “Ratio Peptide:Unstimulated, PDGF R beta polypeptide” value (R56211) was 2.5 and the “Ratio Peptide:Unstimulated, interleukin enhancer binding factor 1” value (R56553) was 2.7. The “Ratio Peptide:Unstimulated, Fc fragment of IgG, low affinity IIb, receptor for (CD32)” value (R68106) was 0.27, the “Ratio Peptide:Unstimulated, MAP kinase kinase kinase 11” value (R80779) was 0.65 and the “Ratio Peptide:Unstimulated, protocadherin gamma subfamily C, 3” value (R89615) was 3.0. For the same compound, the “Ratio Peptide:Unstimulated, G protein-coupled receptor” value (R91916) was 1.84, the “Ratio Peptide:Unstimulated, TNF receptor-associated factor 2” value (T55353) was 1.22 and the “Ratio Peptide:Unstimulated, TLR 2” value (T57791) was 0.52. The “Ratio Peptide:Unstimulated, caspase 1, apoptosis-related cysteine protease (interleukin 1, beta, convertase)” value (T95052) was 0.44, the “Ratio Peptide:Unstimulated, BMP R type IA” value (W15390) was 1.9 and the “Ratio Peptide:Unstimulated, caspase 6, apoptosis-related cysteine protease” value (W45688) was 0.7. The “Ratio Peptide:Unstimulated, MAP kinase kinase kinase 8” value (W56266) was 1.52, the “Ratio Peptide:Unstimulated, integrin, beta 8” value (W56754) was 0.10 and the “Ratio Peptide:Unstimulated, MAP kinase kinase kinase 14” value (W61116) was 0.34. For the same compound, the “Ratio Peptide:Unstimulated, integrin, beta 1” value (W67174) was 2.1, the “Ratio Peptide:Unstimulated, MAP kinase-activated protein kinase 3” value (W68281, listed as ID 2) was 2.1 and 2.13 and the “Ratio Peptide:Unstimulated, MAP kinase kinase 5” value (W69649) was 3.0. For the same compound, the “Ratio Peptide:Unstimulated, TNF receptor superfamily, member 12” value (W71984) was 0.59, the “Ratio Peptide:Unstimulated, killer cell lectin-like receptor subfamily C, member 3” value (W93370) was 3.2 and the “Ratio Peptide:Unstimulated, Mouse Mammary Turmor Virus Receptor homolog” value (W93891) was 6.9. For the same compound, the “Ratio Peptide:Unstimulated” value (integrin, alpha 2 (CD49B) (AA463257)) was 0.89, the “Ratio Peptide:Unstimulated” value (integrin, alpha 3 (antigen CD49C) (AA424695)) was 0.79 and the “Ratio Peptide:Unstimulated” value (integrin, alpha E (AA425451)) was 179.33. The “Ratio Peptide:Unstimulated” value (integrin, beta 4 (AA485668)) was 0.79 and the “Ratio Peptide:Unstimulated” value (small inducible cytokine subfamily A, member 21 (AI922341)) was 3.88.
